Assay results reported in patent US6852863B2, “Metabolites of (3-{[4-tert-butyl-benzyl)-(pyridine-3-sulfonyl)-amino]-methyl}-phenoxy)-acetic acid” (Pfizer Inc., priority 2002, dated 2005).

Tests used:
[1] = Radiolabelled mass balance and metabolic profiles of 14C-parent in Sprague Dawley rats; format: in vivo; details: single 15 mg/kg I.V. dose of 14C-parent
Method: To determine the radiolabelled mass balance and metabolic profiles of (3-{[4-tert-butyl-benzyl)-(pyridine-3-sulfonyl)-amino]-methyl}-phenoxy)-acetic acid in urine, feces, bile and plasma of Sprague-Dawley rats after I.V. administration of a single 15 mg/kg dose of ^14C-(3-{[4-tert-butyl-benzyl)-(pyridine-3-sulfonyl)-amino]-methyl}-phenoxy)-acetic acid.
A group of three male and three female jugular-vein cannulated Sprague-Dawley rats (230-240 g) was housed individually in stainless steel metabolic cages designed to collect urine and feces and administered intravenously a single, 15 mg/kg, dose of ^14C-(3-{[4-tert-butyl-benzyl)-(pyridine-3-sulfonyl)-amino]-methyl}-phenoxy)-acetic acid. […]
The radioactivity in urine, bile and plasma was determined by liquid scintillation counting. Aliquots of urine (0.1 g), bile (0.025 g) or plasma (0.025 g) were mixed with 5 ml of Ecolite (+) scintillation cocktail and counted in a Wallac #1409 liquid scintillation counter (Gaithersburg, Md.). Fecal samples at each time point were homogenized with water, and the total weights of the fecal homogenate were recorded. […]
The radioactivity in the dose was established as 100% of the total radioactivity. The radioactivity at each sampling time for urine and feces was defined as the percentage of dose excreted in the respective matrices. […]

Human hepatocytes = assay: Metabolism of parent in human hepatocytes; format: in vitro ADME; details: 20 μM parent, 2 million cells per ml, 4 hours, 37° C.; mobile phase pH 5.0
Method: Human hepatocytes were generated from a mix of 3 livers. Rat and monkey hepatocytes were generated using Sprague Dawley rats (12 livers), Cynomolgus monkey (1 liver) and Beagle dogs (2 livers). Cryopreserved hepatocytes were suspended in William's E media with 10% FBS to a viable count of 2 million cells per ml and gassed with 95/5 O2/CO2 initially and every hour of incubations. After the addition of 20 μM (3-{[4-tert-butyl-benzyl)-(pyridine-3-sulfonyl)-amino]-methyl}-phenoxy)-acetic acid to a 25 ml Erlenmeyer flask, 2.5 ml of hepatocytes suspension was added and incubated for 4 hours at 37° C. in a shaking water bath.
Metabolite quantification was performed by measuring the areas of individually separated HPLC peaks using the β-RAM (IN/US, Win-flow). The β-RAM provided integrated peak representation printouts in CPM as well as the percentage of the radiolabeled material. The β-RAM was operated using a solid scintillation cell. […]
Identification of the metabolites was performed using a Finnigan TSQ 7000 triple quadrupole mass spectrometer equipped with an API-2 electrospray interface. […] The β-RAM response was recorded as a real time analog signal by the MS data collection system. The collected data from the radioactivity and MS detectors were separated by the dwell volume of flow from the MS to the radioactivity detector (corresponding to a dwell time of about 0.2 min.). […]

Question: With `CC(C)(CO)c1ccc(CN(Cc2cccc(OCC(=O)O)c2)S(=O)(=O)c2cccnc2)cc1` [Metabolite M4, (3-{[[4-(2-hydroxy-1,1-dimethyl-ethyl)-benzyl]-(pyridine-3-sulfonyl)-amino]-methyl}-phenoxy)-acetic acid] as the molecule, how does the “Percentage of metabolite formed in vivo, females (basis of % not stated)” value ([1]; female rats) read?
Answer: The value was 6.5%.

Question: And the “Percentage of metabolite formed in vivo, males (basis of % not stated)” value ([1]; male rats)?
Answer: Its value is 19.7%.

Question: And the “Percent of Radioactivity, Human hepatocytes” value (Human hepatocytes)?
Answer: Its value is 41.2%.
